Measured values taken from patent US11504367B2, “Compounds and methods for treating oxalate-related diseases” (OxaluRx, Inc., priority 2019, dated 2022).

Tests used:
[1] = Alternate liver microsome metabolic stability assay; assay type: in vitro ADME, human, monkey, dog, rat, mouse; conditions: liver microsomes, 1 μM, at 30 minutes, all species tested
Protocol: Metabolic Stability. For evaluating the metabolic stability in liver microsomal preparations, two buffers were prepared. Buffer A consisted of 10 mM NADPH and 0.5 mg/mL microsomes in 100 mM of phosphate buffer. Buffer B consisted of 0.5 mg/mL microsomes in 100 mM of phosphate buffer. The reference compound (verapamil) and test compound were prepared as 100 μM DMSO stocks. The source of liver microsomes was as follows: Human (BD Gentest, #452117), monkey (RILD, #LM-SXH-02M), dog (BD, #452601), Rat (BioIVT, #M00001), and mouse (BioIVT, #M00501).
The reaction was started by adding 2.5 μL of 100 μM control compound or test compound solutions to 216.25 μL of prewarmed (37° C.) assay buffer. The final concentration of the control compound and test compounds were 1 μM. […] The reaction was stopped by adding 5 volumes of cold acetonitrile with internal standards (100 nM alprazolam, 200 nM caffeine, and 100 nM tolbutamide). Samples were centrifuged at 3,220 g for 30 minutes. An aliquot of 100 μL of the supernatant was mixed with 100 μL of ultra-pure water and then used for LC-MS/MS analysis.

Caco-2 cell monolayers = test: Alternate Caco-2 permeability assay; assay type: in vitro ADME; conditions: alternate Caco-2 assay, 10 μM, 2 hours
Protocol: A working solution for the Caco-2 permeability assay was prepared by diluting test compound stock solutions (2 mM in DMSO) with HBSS (10 mM, pH 7.4) to 10 μM working solution. Metoprolol, erythromycin, and cimetidine were used as the control compounds.
To determine the rate of drug transport in the apical-to-basolateral direction (A-B), 125 μL of the working solution was added to the Transwell insert (apical compartment). 50 μL of each sample was immediately transferred from the apical compartment to 200 μL of acetonitrile containing internal standards (100 nM alprazolam, 200 nM caffeine, and 100 nM tolbutamide) in a new 96-well plate as the initial donor sample (A-B). Samples were vortexed at 1000 rpm for 10 minutes, and the wells in the receiver plate (basolateral compartment) were subsequently filled with 235 μL of transport buffer. Plates were incubated at 37° C. for 2 hours.
To determine the rate of drug transport in the basolateral-to-apical direction (B-A), 285 μL of the working solution was added to the receiver plate wells (basolateral compartment). 50 μL of each sample was transferred immediately from the basolateral compartment to 200 μL of acetonitrile containing internal standards (100 nM alprazolam, 200 nM Caffeine, and 100 nM tolbutamide) in a new 96-well plate as the initial donor sample (B-A). Samples were vortexed at 1000 rpm for 10 minutes, and 75 μL of transport buffer was added to the Transwell insert (apical compartment). Plates were incubated at 37° C. for 2 hours. […]
To determine the Lucifer Yellow leakage after 2 hour transport period, the stock solution of Lucifer yellow was prepared in DMSO and diluted with HBSS (10 mM HEPES, pH 7.4) to reach the final concentration of 100 μM. […] The Lucifer Yellow fluorescence (to monitor monolayer integrity) signal was measured in a fluorescence plate reader at 480 nm excitation and 530 nm emission.

[2] = In-vivo pharmacokinetic evaluation (exposure, AUC fold-over Example 1); conditions: male CD-1 mice, 10 mg/kg oral gavage in 20% (2-Hydroxypropyl)-β-cyclodextrin, plasma at 0.5, 2 and 6 hours post-dose; AUC expressed as fold-over Example 1
Protocol: In-vivo exposure of test compounds was determined in 5-6 week old male CD-1 mice. Mice (n=2/compound) received 10 mg/kg of each compound formulated in 20% (2-Hydroxypropyl)-β-cyclodextrin (10 μL/g) by oral gavage. At 0.5 hours, 2 hours, and 6 hours post-dose, blood samples were collected from the submandibular vein using EDTA as an anticoagulant and stored on ice. Plasma samples were obtained by centrifugation at 4° C. and were analyzed immediately or stored at −20° C. until analysis. Compounds were extracted from mouse plasma with acetonitrile and quantified by LC-MS-MS in the negative ion mode using a standard curve.

[3] = Alternate plasma stability assay; assay type: in vitro ADME, human, dog, mouse; conditions: 5 μM
Protocol: Plasma stability. Stock compounds were prepared for testing the stability in human (BioIVT, #BRH1589665), dog (BioIVT, #BGL102122) and mouse (BioIVT, #MSE37887) plasma. 1 mM test compound working solution was prepared in DMSO. A one mM propantheline working solution was prepared in acetonitrile. Propantheline was used as a positive control for human, dog, and mouse plasma in this assay.
Plasma (398 μL) for each compound was added into an incubation plate, and the plate was pre-warmed for 15 minutes at 37° C. The reaction was initiated upon addition of 2 μL of 1 mM working solution (test compounds or control compound) to the plasma to reach a final concentration of 5 μM. The reaction was incubated at 37° C. Aliquots of 50 μL were taken from the reaction samples at 0 and 60 minutes. Adding 450 μL cold acetonitrile containing internal standards stopped the reaction. Once the reaction was stopped, the samples were vortexed for 10 minutes, followed by centrifugation at 3,220 g for 40 minutes to precipitate proteins. The supernatant (100 μL) was transferred to a new plate and diluted with ultrapure water according to the LC-MS signal response and peak shape. Samples were analyzed by LC-MS/MS.

[4] = target: recombinant full-length human hydroxyacid oxidase 1 (HAO1), the equivalents of hGOX (Homo sapiens (Human), UniProt Q9UJM8); test: In-vitro human glycolate oxidase (hGOX) assay (Amplex red fluorescence); assay type: biochemical; conditions: 6 nM recombinant human GO, 85 μM glycolate, 10 min preincubation
In short: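 Activity was read as Amplex Red fluorescence (560/590 nm), with 50 μM reagent added after a 10 min room-temperature incubation. The enzyme, full-length human HAO1, was in pH 7.4 HEPES buffer containing KCl, NaCl, MgCl2 and 0.01% Triton X-100.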

[5] = tested on: alanine-glyoxylate aminotransferase (AGXT) knockout mice; test: In vivo efficacy in Agxt−/− mouse model of primary hyperoxaluria 1 (urine oxalate and glycolate)
Protocol: The in-vivo activity of test compounds was evaluated using alanine-glyoxylate aminotransferase (AGXT) knockout mice from Jackson Laboratory (Bar Harbor, Me.), as reported by Martin-Higueras et al., Molecular Therapy, vol. 24 no. 4, 719-725, 2016. Ten to 15-week-old male AGXT knock-out mice (Agxt−/−) were used to assess the in-vivo activity of test compounds on urinary oxalate and glycolate.
Male Agxt−/− mice were housed under standard conditions (five animals per cage) and allowed free access to food and water. Upon study initiation, animals were treated with test compounds by oral gavage formulated in 20% (2-hydroxypropyl)-β-cyclodextrin (10 μL/g). […]
Urine oxalate was measured using a commercially available clinical oxalate oxidase assay (Trinity Biotech, Wicklow, Ireland) following the manufacturer's instructions.
Plasma and urine glycolate were determined by methods described in Dutta et al., “Inhibition of Glycolate Oxidase with Dicer-substrate siRNA Reduces Calcium Oxalate Deposition in a Mouse Model of Primary Hyperoxaluria Type 1.” Mol Ther., 24(4) 770-778 (2016) using liquid chromatography combined with mass spectrometry detection (LC/MS) on a triple-quadrupole instrument by electrospray ionization and multiple reaction monitoring. […] A two-step protein precipitation determined plasma glycolate. […]

[6] = target: glycolate oxidase (GOX) in HepaRG-CAR cells (Homo sapiens (Human), UniProt Q9UJM8); test: HepaRG-CAR cell-based assay for quantitation of glycolate oxidase inhibition (cellular glycolate flux, GC-MS)
glycolate oxidase (GOX) in HepaRG-CAR cells, sequence (Q9UJM8 whole entry): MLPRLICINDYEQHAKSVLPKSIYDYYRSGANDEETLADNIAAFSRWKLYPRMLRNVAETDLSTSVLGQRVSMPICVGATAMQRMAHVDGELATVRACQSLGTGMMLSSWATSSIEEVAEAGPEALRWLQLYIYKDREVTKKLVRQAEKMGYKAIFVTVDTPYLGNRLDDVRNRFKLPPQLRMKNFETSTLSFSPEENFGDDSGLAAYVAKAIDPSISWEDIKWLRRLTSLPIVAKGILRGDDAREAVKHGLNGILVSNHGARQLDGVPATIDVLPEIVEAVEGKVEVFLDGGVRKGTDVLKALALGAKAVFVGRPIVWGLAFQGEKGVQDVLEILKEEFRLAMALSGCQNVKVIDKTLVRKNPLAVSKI

recombinant full-length human hydroxyacid oxidase 1 (HAO1), the equivalents of hGOX, sequence (Q9UJM8 whole entry): as above

| SMILES | compound remained intact [1] [%] | Papp Efflux Ratio (Caco-2 cell monolayers) | AUC Fold over Ex. 1 [2] | plasma stability half-life (compared with Example 1) [3] | IC50 [4] [nM] | inhibition of urine oxalate ([5]; compound 1 dosed at 10 and 30 mg/kg, vs vehicle-treated control) | urine glycolate change ([5]; compound 1 dosed twice daily at 10 and 30 mg/kg) | IC50 [6] [nM] |
| --- | --- | --- | --- | --- | --- | --- | --- | --- |
| CC(C)CC#Cc1cccc(Oc2[nH]nnc2C(=O)O)c1 [Example 343, 5-(3-(4-Methylpent-1-ynyl)phenoxy)-1H-1,2,3-triazole-4-carboxylic Acid] | 100 | single digits | 4.3 | similarly long or longer half-lives | 10 | – | – | – |
| O=C(O)c1nn[nH]c1Oc1cccc(C#CCC2CC2)c1 [Example 302, 5-(3-(3-Cyclopropylprop-1-ynyl)phenoxy)-1H-1,2,3-triazole-4-carboxylic Acid] | 100 | single digits | 4.1 | similarly long or longer half-lives | 13 | – | – | – |
| C#Cc1cccc(Oc2[nH]nnc2C(=O)O)c1 [Example 1, 5-(3-Ethynylphenoxy)-1H-1,2,3-triazole-4-carboxylic Acid] | – | – | 1.0 | – | 21 | about 30% | concomitant increase in urine glycolate | 2500 |
| O=C(O)c1nn[nH]c1Sc1cccc(C#CCC2CC2)c1 [Example 356, 5-(3-(3-Cyclopropylprop-1-ynyl)phenylthio)-1H-1,2,3-triazole-4-carboxylic Acid] | – | single digits | 7.4 | – | 6 | – | – | – |
| CS(=O)(=O)c1ccc(C#Cc2ccc(Oc3[nH]nnc3C(=O)O)cc2)cc1 [Example 190, 5-(4-(2-(4-(Methylsulfonyl)phenyl)ethynyl)phenoxy)-1H-1,2,3-triazole-4-carboxylic Acid] | – | – | – | similarly long or longer half-lives | 3 | – | – | – |
| CS(=O)(=O)c1ccc(C#Cc2cccc(Oc3[nH]nnc3C(=O)O)c2)cc1 [Example 255, 5-(3-(2-(4-(Methylsulfonyl)phenyl)ethynyl)phenoxy)-1H-1,2,3-triazole-4-carboxylic Acid] | 100 | – | 0.1 | similarly long or longer half-lives | 8 | – | – | – |
| CCC#Cc1ccc(Oc2[nH]nnc2C(=O)O)cc1 [Example 303, 5-(4-(But-1-ynyl)phenoxy)-1H-1,2,3-triazole-4-carboxylic Acid] | – | – | 1.5 | – | 36 | – | – | – |
